In patent US12391683B2, “Therapeutic compounds and methods” (Actio Biosciences, Inc., priority 2022, dated 2025):

Tests used:
[1] = molecular target: T1, TRPC3 channels (Homo sapiens, UniProt Q13507); assay: TRP Family FLIPR Assay, TRPC3; assay type: cell-based; settings: HEK293 cells
T1 construct: expressed in transfected cells; host or cells: HEK293
T1 sequence (Q13507 1-921): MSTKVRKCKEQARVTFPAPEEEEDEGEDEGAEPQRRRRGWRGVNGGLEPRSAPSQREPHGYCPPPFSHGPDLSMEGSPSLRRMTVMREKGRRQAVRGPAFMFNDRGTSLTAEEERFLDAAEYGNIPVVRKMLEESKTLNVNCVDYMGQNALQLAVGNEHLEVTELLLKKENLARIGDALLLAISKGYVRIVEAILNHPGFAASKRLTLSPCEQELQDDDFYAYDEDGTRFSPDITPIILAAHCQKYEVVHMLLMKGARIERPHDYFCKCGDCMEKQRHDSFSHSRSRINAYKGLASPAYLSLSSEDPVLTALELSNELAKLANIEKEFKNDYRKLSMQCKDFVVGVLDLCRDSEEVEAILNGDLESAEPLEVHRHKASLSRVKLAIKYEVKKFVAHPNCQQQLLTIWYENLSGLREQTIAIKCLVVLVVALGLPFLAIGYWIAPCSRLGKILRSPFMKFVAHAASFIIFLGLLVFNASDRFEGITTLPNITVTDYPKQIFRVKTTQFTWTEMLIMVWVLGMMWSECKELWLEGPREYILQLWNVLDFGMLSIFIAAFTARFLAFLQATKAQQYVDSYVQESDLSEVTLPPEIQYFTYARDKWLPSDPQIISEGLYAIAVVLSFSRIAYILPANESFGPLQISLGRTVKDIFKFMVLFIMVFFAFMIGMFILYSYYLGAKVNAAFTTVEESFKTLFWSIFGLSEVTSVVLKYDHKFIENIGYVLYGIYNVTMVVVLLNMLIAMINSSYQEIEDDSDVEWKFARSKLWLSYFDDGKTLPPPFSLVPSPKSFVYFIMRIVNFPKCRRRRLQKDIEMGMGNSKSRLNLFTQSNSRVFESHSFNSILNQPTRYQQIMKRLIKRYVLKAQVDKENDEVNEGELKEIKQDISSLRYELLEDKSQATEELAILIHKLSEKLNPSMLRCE
Procedure: The compound of Example 5 was tested for selectivity against a panel of Human TRP family ion channels in a TRP Family FLIPR Assay as described below. • 1. TRPC3 channels (human TRPC3 variant 1 gene, expressed in HEK293 cells). • 2. TRPC4 channels (human TRPC4 gene, expressed in HEK293 cells). • 3. TRPC5 channels (human TRPC5 gene, expressed in HEK293 cells). • 4. TRPC6 channels (human TRPC6 gene, expressed in HEK293 cells). • 5. TRPM2 channels (human TRPM2 gene, transiently expressed in HEK293 cells). • 6. TRPM3 channels (human TRPM3 gene, transiently expressed in HEK293 cells). • 7. TRPM4 channels (human TRPM4 gene, expressed in CHO cells). • 8. […]
Data acquisition was performed via the FLIPR Control software supplied with the FLIPR System (MDS-AT) and data was analyzed using Microsoft Excel (Microsoft Corp., Redmond, WA) or GraphPad Prism. […]
[formula] where Base is the response at low concentrations of test article, Max is the maximum response at high concentrations, xhalf the EC50, or IC50, the concentration of test article producing either half-maximal activation or inhibition, and rate is the Hill coefficient. […] No assumptions about the fit parameters was made; the fit parameters were determined by the algorithm.
The effect of each test article was evaluated at eight (8) concentrations: 0.003, 0.01, 0.03, 0.1, 0.3, 1, 3 and 10 μM, n≤4 wells/concentration). […]

[2] = test system: Hepatocytes; assay: Hepatocytes predicted clearance, cyno
[3] = test system: Hepatocytes; assay: Hepatocytes predicted clearance, human

Question: Which results are given for `CC(C)(O)c1cnc(N2C[C@@]3(CC[C@@H](F)[C@](C)(Cn4cnc5ccc(C#N)cc54)C3)OC2=O)cn1` (single isomer, unassigned) [Example 5]?
Answer: EC50 ([1]; agonist mode, vs EMAX of GSK1702934A 30 μM, read-out: EC50 hTRPC3): > 10 µM; IC50 ([1]; antagonist mode, activated with 15 μM GSK1702934A, 0.003-10 μM, read-out: IC50 hTRPC3): > 10 µM; Hepatocytes predicted clearance in cyno [2]: 1 mL/min/kg; Hepatocytes predicted clearance in human [3]: < 0.17 mL/min/kg
